Results on 1 substance are retold here after paper PMC6240096, “A hPSC-based platform to discover gene-environment interactions that impact human β-cell and dopamine neuron survival” (Nature Communications, 2018).

Data set [1] concerns mouse pancreatic β-cells. Briefly: CD-1 mice treated by intraperitoneal injection for 5 days. The data set is classed as in vivo. On the procedure:
All animal work has been approved by IACUC committee of Weill Cornell Medical College. CD-1 adult male mice were treated with different doses of propargite or vehicle (corn oil) through intraperitoneal injection for 5 days. Fasting blood glucose level were monitored every day using Abbott FreeStyle Lite blood glucose monitoring system. Then, CD-1 adult male mice were treated with 12 mg/kg propargite or vehicle (corn oil) through intraperitoneal injection for 5 days. Fasting blood was collected via tail nicking following 14–16 h of fasting with ad libitum access to drinking water. Serum mouse insulin levels were assessed by ELISA (80-INSMR-CH01, Alpco). Mice were then killed. The pancreases were embedded in OCT. The tissue was then sectioned at 5 μm for immunohistochemistry staining analysis of DNA damage marker γ-H2A.X and β-cell marker INS.

For data set [2], the system named is MIN6 cells. Briefly: MIN6 cell survival inhibitory curve. To be noted: cell survival rate; read-out: IC50, MIN6 cell death. Format: cell-based, mouse.
Data set [3] concerns EndoC-βH1-Luc cells. Briefly: Humanized NSG mice transplanted with EndoC-βH1-Luc cells. The data set is classed as in vivo, human. To be noted: 12 mg/kg. On the procedure: LentiLuc-blast plasmid was constructed based on the LentiCas9-blast vector (Addgene, 52926). The luciferase gene was driven by a constitutively active EFS promoter. EndoC-βH1 cells were infected with the lentivirus followed by 4 days selection with 20 μg/ml blasticidin to create EndoC-βH1-Luc cells. Adult 6–8 week old female NSG immunodeficient mice (Jackson Laboratory) were transplanted with 5 × 10^5 EndoC-βH1-Luc cells to create a humanized mouse model. Baseline luminescent levels were obtained 5 days after transplantation. 12 mg/kg propargite or vehicle were then administrated for 5 days via intraperitoneal injection (the starting day referred to as day 0). In vivo imaging was performed on day 1, 3, and 5 with an Xtreme Optical and X-ray small animal imaging system. During the imaging, isoflurane was used for anesthesia. 2 mg/150 µl/25 g body weight luciferin potassium salt (Regis, 360223) was applied to each mouse. To generate EndoC-βH1-Luc cells carrying sgGSTT1 or sgGFP, EndoC-βH1-Luc cells were infected with the lentivirus carrying Cas9 and sgRNAs (sgGSTT1 or sgGFP), and purified with 2 days selection using 1 μg/ml puromycin. Adult 6–8-week-old female NSG-immunodeficient mice (Jackson Laboratory) were transplanted with 5 × 10^5 EndoC-βH1-Luc cells carrying sgGSTT1 or sgGFP (control). 12 mg/kg propargite or vehicle were administrated for 3 days via intraperitoneal injection, mice were then sacrificed at day 3. The xenografts were embedded in OCT. The tissue was then sectioned at 5 μm to detect cell death with TUNEL assays (In Situ Cell Death Detection Kit, TMR red, Sigma, 12156792910) and for immunohistochemistry staining analysis of β-cell marker INS to measure cell death rate in EndoC-βH1-Luc cells carrying sgGSTT1 or sgGFP.

For data set [4], the system named is EndoC-βH1 cells. Briefly: EndoC-βH1 cells carrying sgGSTT1, PI staining. The data set is classed as cell-based, human. To be noted: 1.6 μM propargite. On the procedure:
Two sgRNAs targeting two different loci on GSTT1 gene: sgGSTT1-1 and sgGSTT1-2 and a sgRNA targeting GFP (sgGFP)[46] which has no specific targets on the human genome and was used as a control, were cloned into lentiCRISPRv2 vectors (Addgene plasmid # 52961)[47]. EndoC-βH1 cells were infected with the lentivirus carrying Cas9 and sgRNAs. After 2 days of selection with 1 μg/ml puromycin, western blots were used to validate the knockout efficiency.

The test system of data set [5] is BJ-fibroblasts. Briefly: Inhibition curve on BJ-fibroblasts. Format: cell-based, human. Particulars: cell survival rate, 4 days, n=3. On the procedure:
hESCs-derived INS^+ cells, MSCs[43], neurons, and hepatocytes[44] were derived based on the reported protocols and re-plated on 96-well plates with Accutase digestion. Cardiomyocytes (CMs) were differentiated from H9-MYH6: mCherry reporter line, based on the reported protocol. After overnight incubation, cells were treated with DMSO or different doses of hit compounds for 4 days. After fixation, the cells were stained with markers for each cell type. DAPI was used to stain cell nuclei. Plates were analyzed by ImageXpress^MICRO Automated High-Content Analysis System.
Supplementary Figure 4. Assessment of the toxic effect of propargite on different type […]
(a) Flow cytometry char acterization of CD29+ and CD73+ mesenchymal stem cells (MSCs) derived from H1 hESCs. (b-c) microscope image (b) and flow cytometry (c) characterization of cardiomyocytes expressing MYH6+ derived from a MYH6:mCherry reporter hESC line. (d-e) Immunocytochemistry characterization of MAP2+/TUJ1+ and HuC/D+/MAP2+ neurons (d) and A1AT+/ASGPR1+ hepatocytes (e) derived from H1 hESCs. All the cells were counterstained by DAPI (blue). Scale bars, 100 µm. (f) Inhibition curve of propargite on pancreatic β-like cells, MSCs, cardiomyocytes, neurons, and hepatocytes derived from hESCs, and BJ-fibroblasts (n=3). Values presented as mean±S.D. […]

[6] abbreviates: 12 mg/kg daily for 5 days, intraperitoneal, CD-1 mice.

As usually defined, the IC50 is the concentration that gives 50% inhibition.

As for “2-(4-tert-butylphenoxy)-cyclohexyl prop-2-yne-1-sulfonate [propargite]”, in data set [1] (setting [6]), the blood glucose level entry is “lightly increased”, the body weight result is given as “without significantly affecting” and the “insulin levels in the plasma of fasted mice” value was “significant reduction”. Also, the “percentage of γ-H2AX+/INS+ in INS+ cells (DNA damage)” value in data set [1] (12 mg/kg, mouse pancreas) is reported as “significant increase”. Besides, the IC50 in data set [2] amounted to 1 µM. In data set [3] (day 3), the “cell death rate (TUNEL) of EndoC-βH1-Luc cells carrying sgGSTT1 vs sgGFP” value is “higher cell death rate” and the “luciferase signal of EndoC-βH1-Luc cells” value is on record as “slower rate increase”. In addition, in data set [3] (day 5), the “luciferase signal of EndoC-βH1-Luc cells” value is on record as “marked decrease”. In data set [4], the “INS+ cell death in EndoC-βH1 cells expressing sgGSTT1” value is “significant increase”. The same substance registered a 50% inhibitory concentration (IC50) in data set [5] of 3 µM.
